Experimental data reported in patent US20240300958A1, “COMPOUNDS AND THE USES AND PHARMACEUTICAL COMPOSITIONS THEREOF” (BEIJING YOUZHUJU NETWORK TECHNOLOGY CO. LTD., priority 2023, published 2024).
Read-outs that look alike come from different tables or passages of the source.

Tests used:
Format in all cases: biochemical
DDR1 = DDR1 (Homo sapiens (Human), UniProt Q08345); experiment: DDR1 kinase inhibition assay (FAM-labeled peptide), IC50
Protocol: 1× kinase base buffer (50 mM HEPES, pH 7.5, 0.0015% Brij-35) and a stop buffer (100 mM HEPES, pH 7.5, 0.015% Brij-35, 0.2% Coating Reagent #3, 50 mM EDTA) were prepared for testing kinases.
The compounds were diluted with 100% DMSO to 100 times the highest final inhibitor concentration required in the reaction. 100 μl of dilution of the compound was transferred to wells of a 96-well plate. For example, 100000 nM solution of the compound in DMSO was prepared in this step in case that an inhibitor concentration of 1000 nM is required. 100 μl of 100% DMSO was added to two empty wells of a 96-well plate for no compound control and no enzyme control. This plate was labeled as the source plate. A new 96-well plate with 5 μl of compound transferred from the source plate is used as an intermediate plate. 95 μl of 1× kinase buffer was added to each well of the intermediate plate. The compounds in the intermediate plate was mixed on a shaker for 10 minutes.
5 μl of sample in each well from the 96-well intermediate plate was transferred to the 384-well plate in duplicate. For example, well A1 of the 96-well plate was transferred to wells A2 and A1 of the 384-well plate, and well A2 of the 96-well plate was transferred to wells A3 and A4 of the 384-well plate, and so forth. 2.5× enzyme solution was prepared: 1× kinase basal buffer with added kinase. 2.5× peptide solution was prepared: 1× kinase basal buffer with added FAM-labeled peptide and ATP. To an assay plate already contained 5 μl of 10% dimethyl sulfoxide compound, 2.5× enzyme solution was transferred, and each well of the 384-well assay plate was added 10 μl of 2.5× enzyme solution. After incubation at room temperature for 10 minutes, 2.5× peptide solution was transferred to the assay plate. Each well of the 384-well assay plate was added 10 μl of 2.5× peptide solution. Kinase reaction and termination: incubation at 28° C. for a specified period followed by the addition of 25 μl stop buffer to stop the reaction. The data was read and collected.

FGFR1 = FGFR1 (Homo sapiens (Human), UniProt P11362); experiment: Kinase inhibition profile (HTRF / ADP Glo kinase assay)
Method in brief: (§1)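 Compound was preincubated with kinase and metal ions for 10 min at 25 °C, then substrate plus ATP was added for a 60 min reaction at 25 °C. Read-out was either HTRF (620/665 nm) or ADP-Glo luminescence. Percent inhibition was scaled between 0.5% DMSO (0%) and 10 μM positive control (100%).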

HIPK1 = HIPK1 (Homo sapiens (Human), UniProt Q86Z02); experiment: as above
Method in brief: as §1

p70S6K = p70S6K (Homo sapiens (Human), UniProt P23443); experiment: as above
Method in brief: as §1

CDK1/CycE1 = CDK1/CycE1 (Homo sapiens (Human), UniProt P06493); experiment: as above
Method in brief: as §1

CK2α1/β = CK2α1/β (Homo sapiens (Human), UniProt P68400); experiment: as above
Method in brief: as §1

SYK = SYK (Homo sapiens (Human), UniProt P43405); experiment: as above
Method in brief: as §1

TIE2 = TIE2 (Homo sapiens (Human), UniProt Q02763); experiment: as above
Method in brief: as §1

AKT1 = AKT1 (Homo sapiens (Human), UniProt P31749); experiment: as above
Method in brief: as §1

p38α = p38α (Homo sapiens (Human), UniProt Q16539); experiment: as above
Method in brief: as §1

DCAMKL2 = DCAMKL2 (Homo sapiens (Human), UniProt Q8N568); experiment: as above
Method in brief: as §1

MAPKAPK2 = MAPKAPK2 (Homo sapiens (Human), UniProt P49137); experiment: as above
Method in brief: as §1

PLK1 = PLK1 (Homo sapiens (Human), UniProt P53350); experiment: as above
Method in brief: as §1

AMPKαl/β1/γ1 = AMPKαl/β1/γ1 (Homo sapiens (Human), UniProt Q13131); experiment: as above
Method in brief: as §1

[1] = 1 uM Compound C1, read-out: % Inhibition (First measurement)
[2] = 1 uM Compound C1, read-out: % Inhibition (Second measurement)
[3] = 1 uM Compound C1, read-out: Average inhibition (%)

Sequence of PLK1 (P53350 whole entry, species assumed): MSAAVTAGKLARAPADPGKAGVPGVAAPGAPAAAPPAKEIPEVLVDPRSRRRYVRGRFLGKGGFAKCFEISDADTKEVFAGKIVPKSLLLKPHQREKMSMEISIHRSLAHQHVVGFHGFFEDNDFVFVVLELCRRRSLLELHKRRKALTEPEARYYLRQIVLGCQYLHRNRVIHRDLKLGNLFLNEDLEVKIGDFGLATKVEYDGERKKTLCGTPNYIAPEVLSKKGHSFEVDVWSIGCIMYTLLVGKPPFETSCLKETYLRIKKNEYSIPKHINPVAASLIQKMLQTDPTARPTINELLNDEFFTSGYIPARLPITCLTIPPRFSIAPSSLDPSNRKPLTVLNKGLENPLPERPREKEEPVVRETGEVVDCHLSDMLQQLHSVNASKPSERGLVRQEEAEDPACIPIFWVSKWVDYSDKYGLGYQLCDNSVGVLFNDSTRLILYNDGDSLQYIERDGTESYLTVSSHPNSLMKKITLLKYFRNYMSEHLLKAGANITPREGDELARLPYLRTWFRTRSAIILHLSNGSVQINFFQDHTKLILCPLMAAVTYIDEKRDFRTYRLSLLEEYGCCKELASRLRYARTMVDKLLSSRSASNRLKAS
Sequence of AMPKαl/β1/γ1 (Q13131 whole entry): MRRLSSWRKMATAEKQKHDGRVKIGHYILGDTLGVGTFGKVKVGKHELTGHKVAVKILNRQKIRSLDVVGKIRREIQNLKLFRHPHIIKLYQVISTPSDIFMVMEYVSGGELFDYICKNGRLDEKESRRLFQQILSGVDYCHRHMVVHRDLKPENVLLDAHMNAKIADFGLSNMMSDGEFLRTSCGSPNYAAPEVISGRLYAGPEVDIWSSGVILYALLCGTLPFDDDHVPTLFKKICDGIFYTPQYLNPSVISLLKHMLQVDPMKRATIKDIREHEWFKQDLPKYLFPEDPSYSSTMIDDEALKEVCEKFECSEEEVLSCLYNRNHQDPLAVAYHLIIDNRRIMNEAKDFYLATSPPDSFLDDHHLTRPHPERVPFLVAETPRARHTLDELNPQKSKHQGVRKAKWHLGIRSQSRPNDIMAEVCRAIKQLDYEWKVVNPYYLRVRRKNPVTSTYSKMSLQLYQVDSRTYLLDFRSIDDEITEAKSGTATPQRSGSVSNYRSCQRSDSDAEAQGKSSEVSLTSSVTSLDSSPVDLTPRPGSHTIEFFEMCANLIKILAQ
Sequence of AMPKαl/β1/γ1 (Q9Y478 whole entry partner): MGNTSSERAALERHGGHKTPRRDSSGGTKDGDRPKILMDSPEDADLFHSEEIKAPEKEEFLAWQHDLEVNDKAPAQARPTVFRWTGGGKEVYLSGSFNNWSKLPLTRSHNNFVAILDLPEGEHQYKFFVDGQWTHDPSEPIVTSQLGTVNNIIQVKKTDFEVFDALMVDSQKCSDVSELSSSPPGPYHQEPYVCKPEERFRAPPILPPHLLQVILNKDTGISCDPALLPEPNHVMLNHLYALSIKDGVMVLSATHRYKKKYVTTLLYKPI
Sequence of AMPKαl/β1/γ1 (P54619 whole entry partner): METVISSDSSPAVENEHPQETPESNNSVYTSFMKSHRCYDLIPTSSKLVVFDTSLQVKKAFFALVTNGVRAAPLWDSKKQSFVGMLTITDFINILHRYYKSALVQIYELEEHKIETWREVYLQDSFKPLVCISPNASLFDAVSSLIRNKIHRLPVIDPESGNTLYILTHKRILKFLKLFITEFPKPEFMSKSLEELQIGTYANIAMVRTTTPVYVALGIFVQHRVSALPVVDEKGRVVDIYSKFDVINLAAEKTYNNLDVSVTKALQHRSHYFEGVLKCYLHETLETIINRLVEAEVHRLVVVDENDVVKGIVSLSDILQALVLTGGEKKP
Sequence of AKT1 (P31749 whole entry, species assumed): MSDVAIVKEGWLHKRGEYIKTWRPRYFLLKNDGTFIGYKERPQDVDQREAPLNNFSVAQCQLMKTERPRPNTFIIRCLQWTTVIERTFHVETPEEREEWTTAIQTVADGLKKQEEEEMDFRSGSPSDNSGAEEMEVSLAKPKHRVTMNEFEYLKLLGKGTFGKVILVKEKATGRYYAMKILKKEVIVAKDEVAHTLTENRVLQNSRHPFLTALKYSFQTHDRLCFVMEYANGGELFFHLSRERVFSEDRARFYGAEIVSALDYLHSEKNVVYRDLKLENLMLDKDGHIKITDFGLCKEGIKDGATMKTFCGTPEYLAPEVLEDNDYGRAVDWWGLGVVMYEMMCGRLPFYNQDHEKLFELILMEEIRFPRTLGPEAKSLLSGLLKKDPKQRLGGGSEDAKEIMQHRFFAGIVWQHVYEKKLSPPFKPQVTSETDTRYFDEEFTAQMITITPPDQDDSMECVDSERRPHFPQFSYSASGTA
Sequence of CDK1/CycE1 (P06493 whole entry, species assumed): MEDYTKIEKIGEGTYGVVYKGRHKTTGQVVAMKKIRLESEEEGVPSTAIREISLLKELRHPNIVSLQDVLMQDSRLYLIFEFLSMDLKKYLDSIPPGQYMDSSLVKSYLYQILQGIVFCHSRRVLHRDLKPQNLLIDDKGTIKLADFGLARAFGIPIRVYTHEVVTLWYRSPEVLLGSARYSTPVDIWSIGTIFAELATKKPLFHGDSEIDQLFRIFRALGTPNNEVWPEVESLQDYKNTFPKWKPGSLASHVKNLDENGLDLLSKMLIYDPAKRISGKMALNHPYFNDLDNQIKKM
Sequence of CDK1/CycE1 (P24864 whole entry partner, species assumed): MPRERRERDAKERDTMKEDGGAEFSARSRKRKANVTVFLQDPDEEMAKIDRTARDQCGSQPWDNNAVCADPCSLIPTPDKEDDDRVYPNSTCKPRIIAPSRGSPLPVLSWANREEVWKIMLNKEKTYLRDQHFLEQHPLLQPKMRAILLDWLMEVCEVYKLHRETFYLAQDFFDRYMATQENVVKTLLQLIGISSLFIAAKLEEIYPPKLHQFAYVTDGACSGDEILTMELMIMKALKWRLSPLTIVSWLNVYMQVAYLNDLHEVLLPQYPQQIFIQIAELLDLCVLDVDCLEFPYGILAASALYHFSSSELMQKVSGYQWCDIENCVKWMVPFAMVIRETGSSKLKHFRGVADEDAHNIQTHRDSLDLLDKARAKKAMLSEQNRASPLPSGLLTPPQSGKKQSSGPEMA
Sequence of CK2α1/β (P68400 whole entry): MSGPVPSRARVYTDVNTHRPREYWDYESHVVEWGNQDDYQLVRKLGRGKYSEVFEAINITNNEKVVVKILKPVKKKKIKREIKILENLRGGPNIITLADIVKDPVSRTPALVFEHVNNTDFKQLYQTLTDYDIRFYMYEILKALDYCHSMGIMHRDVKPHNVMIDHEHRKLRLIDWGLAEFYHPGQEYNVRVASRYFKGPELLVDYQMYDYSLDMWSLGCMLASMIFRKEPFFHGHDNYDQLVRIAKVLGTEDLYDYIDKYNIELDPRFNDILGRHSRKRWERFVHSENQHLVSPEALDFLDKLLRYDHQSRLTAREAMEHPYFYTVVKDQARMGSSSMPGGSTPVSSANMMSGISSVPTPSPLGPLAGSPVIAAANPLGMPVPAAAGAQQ
Sequence of CK2α1/β (P67870 whole entry partner): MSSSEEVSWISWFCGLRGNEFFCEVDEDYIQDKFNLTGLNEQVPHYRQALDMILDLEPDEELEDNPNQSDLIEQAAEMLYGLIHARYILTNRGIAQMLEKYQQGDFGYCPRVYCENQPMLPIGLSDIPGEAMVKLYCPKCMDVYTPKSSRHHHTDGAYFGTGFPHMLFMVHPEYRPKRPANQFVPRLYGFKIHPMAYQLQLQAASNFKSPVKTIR
Sequence of p70S6K (P23443 whole entry): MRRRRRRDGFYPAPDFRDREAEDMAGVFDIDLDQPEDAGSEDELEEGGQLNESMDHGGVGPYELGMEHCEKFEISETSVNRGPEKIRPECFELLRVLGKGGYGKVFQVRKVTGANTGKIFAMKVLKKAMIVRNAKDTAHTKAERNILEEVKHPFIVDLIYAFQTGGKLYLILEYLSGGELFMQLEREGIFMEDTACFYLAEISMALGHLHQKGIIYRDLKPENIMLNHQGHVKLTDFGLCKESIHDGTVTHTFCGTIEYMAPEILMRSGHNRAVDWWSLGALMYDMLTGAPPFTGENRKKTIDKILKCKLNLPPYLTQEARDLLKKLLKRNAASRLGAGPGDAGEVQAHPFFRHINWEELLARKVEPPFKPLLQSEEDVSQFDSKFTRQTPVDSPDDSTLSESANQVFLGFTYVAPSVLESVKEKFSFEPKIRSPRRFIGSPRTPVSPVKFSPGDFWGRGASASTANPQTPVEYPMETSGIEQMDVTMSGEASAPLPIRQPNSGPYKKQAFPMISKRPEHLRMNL
Sequence of MAPKAPK2 (P49137 whole entry, species assumed): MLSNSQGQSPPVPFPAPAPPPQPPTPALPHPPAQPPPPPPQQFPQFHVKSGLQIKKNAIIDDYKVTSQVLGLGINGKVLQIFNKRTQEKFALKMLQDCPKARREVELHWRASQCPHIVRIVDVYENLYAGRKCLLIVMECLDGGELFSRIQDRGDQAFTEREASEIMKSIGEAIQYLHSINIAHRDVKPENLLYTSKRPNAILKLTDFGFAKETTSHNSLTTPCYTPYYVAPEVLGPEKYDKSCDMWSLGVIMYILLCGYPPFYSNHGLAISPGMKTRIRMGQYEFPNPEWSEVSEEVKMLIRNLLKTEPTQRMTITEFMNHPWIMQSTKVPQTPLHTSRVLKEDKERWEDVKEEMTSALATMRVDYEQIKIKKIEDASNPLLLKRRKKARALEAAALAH
Sequence of p38α (Q16539 whole entry): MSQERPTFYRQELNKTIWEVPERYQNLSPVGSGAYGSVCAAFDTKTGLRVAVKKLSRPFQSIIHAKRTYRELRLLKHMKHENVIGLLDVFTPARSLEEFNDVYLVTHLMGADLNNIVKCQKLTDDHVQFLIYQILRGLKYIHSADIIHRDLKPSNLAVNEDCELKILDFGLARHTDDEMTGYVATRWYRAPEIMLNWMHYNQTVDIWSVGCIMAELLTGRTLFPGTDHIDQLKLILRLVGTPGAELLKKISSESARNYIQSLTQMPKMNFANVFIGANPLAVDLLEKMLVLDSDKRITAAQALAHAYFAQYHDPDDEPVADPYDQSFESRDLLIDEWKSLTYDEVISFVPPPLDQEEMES

## Cc1ccc(C(=O)Nc2ccccn2)cc1C#Cc1cnc2cc(C3=CCCCC3)cnn12 [Compound C1, 3-{2-[7-(cyclohex-1-en-1-yl)imidazo[1,2-b]pyridazin-3-yl]ethynyl}-4-methyl-N-(pyridin-2-yl)benzamide]
DDR1
  IC50: 23 nM
FGFR1; [1]
  inhibition at 1 µM: 0.18%
FGFR1; [2]
  inhibition at 1 µM: -18.2%
FGFR1; [3]
  inhibition at 1 µM: -9.02%
HIPK1; [1]
  inhibition at 1 µM: 6.91%
HIPK1; [2]
  inhibition at 1 µM: 4.17%
HIPK1; [3]
  inhibition at 1 µM: 5.54%
p70S6K; [1]
  inhibition at 1 µM: 0.46%
p70S6K; [2]
  inhibition at 1 µM: -0.19%
p70S6K; [3]
  inhibition at 1 µM: 0.14%
CDK1/CycE1; [1]
  inhibition at 1 µM: 11.9%
CDK1/CycE1; [2]
  inhibition at 1 µM: 20.1%
CDK1/CycE1; [3]
  inhibition at 1 µM: 16%
CK2α1/β; [1]
  inhibition at 1 µM: -5.19%
CK2α1/β; [2]
  inhibition at 1 µM: 5.01%
CK2α1/β; [3]
  inhibition at 1 µM: -0.09%
SYK; [1]
  inhibition at 1 µM: 5.21%
SYK; [2]
  inhibition at 1 µM: -2.04%
SYK; [3]
  inhibition at 1 µM: 1.59%
TIE2; [1]
  inhibition at 1 µM: -5.65%
TIE2; [2]
  inhibition at 1 µM: 6.2%
TIE2; [3]
  inhibition at 1 µM: 0.28%
AKT1; [1]
  inhibition at 1 µM: 7.17%
AKT1; [2]
  inhibition at 1 µM: 4.56%
AKT1; [3]
  inhibition at 1 µM: 5.87%
p38α; [1]
  inhibition at 1 µM: 3.39%
p38α; [2]
  inhibition at 1 µM: -3.27%
p38α; [3]
  inhibition at 1 µM: 0.06%
DCAMKL2; [1]
  inhibition at 1 µM: -8.91%
DCAMKL2; [2]
  inhibition at 1 µM: -8.39%
DCAMKL2; [3]
  inhibition at 1 µM: -8.65%
MAPKAPK2; [1]
  inhibition at 1 µM: 15.3%
MAPKAPK2; [2]
  inhibition at 1 µM: -3.28%
MAPKAPK2; [3]
  inhibition at 1 µM: 6.02%
PLK1; [1]
  inhibition at 1 µM: 24.1%
PLK1; [2]
  inhibition at 1 µM: 20.6%
PLK1; [3]
  inhibition at 1 µM: 22.4%
AMPKαl/β1/γ1; [1]
  inhibition at 1 µM: 2.13%
AMPKαl/β1/γ1; [2]
  inhibition at 1 µM: -1.96%
AMPKαl/β1/γ1; [3]
  inhibition at 1 µM: 0.09%
